Here are results for three molecules from US8637509B2, “Azaindazoles” (GlaxoSmithKline LLC, priority 2010, dated 2014).

The structures appear in SMILES notation.

By IC50 is commonly meant the concentration that gives 50% inhibition.

The experiment deals with T1, EZH2 (Homo sapiens, UniProt Q15910).
T1 construct: GRITS37108
T1 sequence (Q15910 whole entry): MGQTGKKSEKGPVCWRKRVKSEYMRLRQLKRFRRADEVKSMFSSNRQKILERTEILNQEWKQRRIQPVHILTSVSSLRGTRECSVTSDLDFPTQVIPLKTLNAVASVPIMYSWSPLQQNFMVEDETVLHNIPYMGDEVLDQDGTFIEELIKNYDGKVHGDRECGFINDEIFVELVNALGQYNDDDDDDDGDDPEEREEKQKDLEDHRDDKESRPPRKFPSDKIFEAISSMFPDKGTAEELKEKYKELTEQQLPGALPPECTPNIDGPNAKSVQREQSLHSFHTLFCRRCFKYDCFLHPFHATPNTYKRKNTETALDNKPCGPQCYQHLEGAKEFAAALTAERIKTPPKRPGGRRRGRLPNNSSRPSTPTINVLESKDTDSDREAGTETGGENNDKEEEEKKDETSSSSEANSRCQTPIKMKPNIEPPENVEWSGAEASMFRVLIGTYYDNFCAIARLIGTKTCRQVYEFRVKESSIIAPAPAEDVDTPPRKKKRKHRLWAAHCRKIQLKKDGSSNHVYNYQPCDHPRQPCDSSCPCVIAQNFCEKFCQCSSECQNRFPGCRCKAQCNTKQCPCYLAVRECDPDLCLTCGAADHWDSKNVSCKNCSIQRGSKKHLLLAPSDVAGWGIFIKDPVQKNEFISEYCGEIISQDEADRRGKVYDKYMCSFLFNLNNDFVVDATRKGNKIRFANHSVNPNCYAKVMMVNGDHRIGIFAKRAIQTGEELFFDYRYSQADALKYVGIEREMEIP
T1 sequence (O75530 whole entry partner): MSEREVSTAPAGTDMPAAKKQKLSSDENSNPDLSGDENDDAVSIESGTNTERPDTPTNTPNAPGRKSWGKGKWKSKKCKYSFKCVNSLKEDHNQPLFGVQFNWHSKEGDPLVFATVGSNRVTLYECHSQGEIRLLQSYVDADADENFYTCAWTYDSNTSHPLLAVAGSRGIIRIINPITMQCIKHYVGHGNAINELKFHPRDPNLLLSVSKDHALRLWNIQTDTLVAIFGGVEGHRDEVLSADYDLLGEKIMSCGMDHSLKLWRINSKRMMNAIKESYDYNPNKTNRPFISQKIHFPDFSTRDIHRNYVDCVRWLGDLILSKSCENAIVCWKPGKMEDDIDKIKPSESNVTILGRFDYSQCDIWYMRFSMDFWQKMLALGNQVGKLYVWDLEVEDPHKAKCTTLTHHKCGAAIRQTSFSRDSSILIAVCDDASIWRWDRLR
T1 sequence (Q15022 whole entry partner): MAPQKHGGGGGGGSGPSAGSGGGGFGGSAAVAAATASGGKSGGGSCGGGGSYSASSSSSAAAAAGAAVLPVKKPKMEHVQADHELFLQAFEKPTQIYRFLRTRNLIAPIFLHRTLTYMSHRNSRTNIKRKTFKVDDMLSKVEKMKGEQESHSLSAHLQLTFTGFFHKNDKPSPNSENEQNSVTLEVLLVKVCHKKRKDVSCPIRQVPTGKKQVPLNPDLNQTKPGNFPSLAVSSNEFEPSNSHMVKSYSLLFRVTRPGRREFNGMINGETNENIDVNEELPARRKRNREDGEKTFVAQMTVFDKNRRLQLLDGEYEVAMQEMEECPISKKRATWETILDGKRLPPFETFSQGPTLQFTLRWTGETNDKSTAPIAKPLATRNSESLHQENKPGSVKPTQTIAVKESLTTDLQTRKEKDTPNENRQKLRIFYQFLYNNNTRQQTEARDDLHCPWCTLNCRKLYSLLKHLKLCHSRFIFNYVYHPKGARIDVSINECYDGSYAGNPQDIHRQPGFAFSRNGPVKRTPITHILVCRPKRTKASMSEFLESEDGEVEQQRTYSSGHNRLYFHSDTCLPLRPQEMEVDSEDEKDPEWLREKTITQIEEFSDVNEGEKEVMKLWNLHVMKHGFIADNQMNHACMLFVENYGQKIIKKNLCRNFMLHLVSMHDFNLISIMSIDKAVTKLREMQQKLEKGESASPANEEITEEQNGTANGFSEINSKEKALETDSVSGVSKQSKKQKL
In words: EZH2 methyltransferase SPA assay (3H-SAM, Hela nucleosomes). Conditions: read-out: IC50. The class given is biochemical.
As for `Cc1cc(C)c(CNC(=O)c2cc(C3CC3)nc3c2c(C)nn3C2CCC2)c(=O)[nH]1` [Ex 105, 1-Cyclobutyl-6-cyclopropyl-N-[(4,6-dimethyl-2-oxo-1,2-dihydro-3-pyridinyl)methyl]-3-methyl-1H-pyrazolo[3,4-b]pyridine-4-carboxamide], the IC50 came to 315 nM.
The same measure for `Cc1cc(C2CCCCC2)c(CNC(=O)c2cc(C3CC3)nc3c2cnn3C(C)C)c(=O)[nH]1` [Ex 16, N-[(4-Cyclohexyl-6-methyl-2-oxo-1,2-dihydro-3-pyridinyl)methyl]-6-cyclopropyl-1-(1-methylethyl)-1H-pyrazolo[3,4-b]pyridine-4-carboxamide]: 105 nM.
For `Cc1cc(C)c(CNC(=O)c2cc(-c3ccccc3)nc3c2cnn3C(C)C)c(=O)[nH]1` [Ex 38, N-[(4,6-Dimethyl-2-oxo-1,2-dihydro-3-pyridinyl)methyl]-1-(1-methylethyl)-6-phenyl-1H-pyrazolo[3,4-b]pyridine-4-carboxamide] the value was 392 nM.
